This note sets out measurements from ChEMBL document CHEMBL1201862, “PubChem BioAssay data set” (2004).

Some test systems named below: HCC 2998; OVCAR-4; UO-31; SR; LOX IMVI; T47D; HCT-15; SF-539; HT-29; 786-0; SK-MEL-28; M14; SNB-75; PC-3; IGROV-1; HOP-62; SK-MEL-2; OVCAR-3; OVCAR-8.
What all share (test): inhibition of tumour cell growth, NCI panel, 48 h

Each structure is given as a SMILES string.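 Where inhibition never reached the appropriate level, the endpoint shown equals the highest concentration tested. Otherwise, values were interpolated linearly from a five-concentration, 48-hour dose response in 96-well plates. Here, GI50 denotes the concentration required for 50% inhibition of growth.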 The source made the active and inactive calls. Rule as the data show it: active = GI50 up to about 1.1 µM and inactive = higher.

As to `Cc1ccc(NCCN(C)C)c2c(=O)c3cc(O)ccc3oc12`, the GI50 in the experiment on HCC 2998 is 11.9 µM (inactive); with OVCAR-4, 17 µM (inactive); in the experiment on UO-31, 9.2 µM (inactive); in the experiment with SR it was 0.083 µM (active); in the experiment with LOX IMVI, 9.53 µM (inactive); in the experiment with T47D it was 16.5 µM (inactive). For the same compound, the GI50 in the experiment on HCT-15 was 9.08 µM; in the experiment on SF-539, 8.28 µM (inactive); with HT-29, 11.2 µM (inactive); in the experiment with 786-0, 5.24 µM (inactive); with SK-MEL-28, 14.8 µM (inactive); with M14, 12.4 µM (inactive). Moreover, the GI50 is 4.79 µM (inactive) in the experiment with SNB-75; 11.8 µM (inactive) with PC-3; 12.3 µM (inactive) in the experiment on IGROV-1; 11 µM (inactive) in the experiment with HOP-62; 20.6 µM (inactive) with SK-MEL-2; 16.5 µM (inactive) with OVCAR-3. Moreover, the GI50 in the experiment on OVCAR-8 was 6.97 µM (inactive).

Turning to `COc1ccccc1NC(=O)CC(=O)N1N=C(C)C(/N=N/c2ccc(C(=O)O)cc2)C1=O` (configuration not stated), the GI50 with HCC 2998, in the experiment on OVCAR-4, in the experiment with UO-31, in the experiment with SR, in the experiment on LOX IMVI and in the experiment with T47D was > 100 µM (inactive) each time. The GI50 in the experiment with HCT-15 is over 100 µM; with SF-539, > 100 µM (inactive); in the experiment on HT-29, 23.8 µM (inactive); in the experiment on 786-0, > 100 µM (inactive); in the experiment with SK-MEL-28, > 100 µM (inactive); in the experiment on M14 it was > 100 µM (inactive). Also, the GI50 was 2.24 µM (inactive) in the experiment with SNB-75; > 100 µM (inactive) in the experiment on PC-3; > 100 µM (inactive) in the experiment on IGROV-1; > 100 µM (inactive) with HOP-62; > 100 µM (inactive) with SK-MEL-2; > 100 µM (inactive) in the experiment with OVCAR-3. For the same compound, the GI50 with OVCAR-8 was > 100 µM (inactive).

Turning to `OC1CC2CCC(C1)N2CCCN1c2ccccc2Sc2ccc(Cl)cc21` (configuration not stated), the GI50 in the experiment on HCC 2998 is 0.338 µM (active); with OVCAR-4, 3.69 µM (inactive); with UO-31 it was 2.46 µM (inactive); in the experiment on SR it was 2.2 µM (inactive); in the experiment with LOX IMVI, 1.7 µM (inactive); in the experiment with T47D, 2.23 µM (inactive). Besides, the GI50 in the experiment on HCT-15 was 2.49 µM; in the experiment on SF-539 it was 1.84 µM (inactive); in the experiment with HT-29, 1.67 µM (inactive); in the experiment with 786-0, 1.83 µM (inactive); with SK-MEL-28, 1.81 µM (inactive); in the experiment on M14, 1.81 µM (inactive). The GI50 is 2.21 µM (inactive) in the experiment with SNB-75; 2.12 µM (inactive) with PC-3; 1.98 µM (inactive) in the experiment with IGROV-1; 4.73 µM (inactive) in the experiment on HOP-62; 1.69 µM (inactive) with SK-MEL-2; 2.67 µM (inactive) in the experiment with OVCAR-3. Besides, the GI50 in the experiment with OVCAR-8 was 2.11 µM (inactive).

Turning to `[N-]=[N+]=NC1C(O)C(CO)OC1n1cnc2c(N)ncnc21` (configuration not stated), the GI50 in the experiment with HCC 2998 was 29.7 µM (inactive); in the experiment with OVCAR-4 it was > 100 µM (inactive); in the experiment with UO-31 it was 36.6 µM (inactive); with SR, 1.67 µM (inactive); with LOX IMVI, 24.7 µM (inactive); in the experiment with T47D it was 8.83 µM (inactive). The GI50 with HCT-15 was over 100 µM; with SF-539, 27.9 µM (inactive); with HT-29, 31 µM (inactive); with 786-0, 30.8 µM (inactive); with SK-MEL-28 it was > 100 µM (inactive); with M14, 36.6 µM (inactive). Further, the GI50 in the experiment with SNB-75 is 36.4 µM (inactive); in the experiment on PC-3, 74.3 µM (inactive); in the experiment on IGROV-1 it was 92.7 µM (inactive); with HOP-62, 84.9 µM (inactive); in the experiment on SK-MEL-2, > 100 µM (inactive); in the experiment on OVCAR-3, > 100 µM (inactive). Also, the GI50 in the experiment on OVCAR-8 was 37.9 µM (inactive).

Turning to `CC1CN=C(N(Cc2ccccc2)C(=O)Nc2ccc(Cl)c(Cl)c2)S1` (configuration not stated), the GI50 is > 10 µM (inactive) in the experiment on HCC 2998; 61.8 µM (inactive) in the experiment with OVCAR-4; 25.8 µM (inactive) in the experiment on UO-31; 29.1 µM (inactive) with SR; 21.4 µM (inactive) in the experiment on LOX IMVI; 16.9 µM (inactive) in the experiment with T47D. The GI50 with HCT-15 is 15.7 µM; with SF-539, 33.3 µM (inactive); in the experiment with HT-29 it was 30.1 µM (inactive); in the experiment on 786-0, 30.5 µM (inactive); with SK-MEL-28, 26.1 µM (inactive); in the experiment with M14 it was 18.3 µM (inactive). In addition, the GI50 was 35.6 µM (inactive) with SNB-75; 31.4 µM (inactive) with PC-3; 32.5 µM (inactive) with IGROV-1; 87.5 µM (inactive) in the experiment with HOP-62; 23.4 µM (inactive) in the experiment on SK-MEL-2; 50.9 µM (inactive) in the experiment on OVCAR-3. Moreover, the GI50 with OVCAR-8 is 49.3 µM (inactive).

For the compound `Oc1cccnc1CN1CCCCC1`, the GI50 in the experiment on HCC 2998, in the experiment on OVCAR-4, in the experiment with UO-31, in the experiment on SR, with LOX IMVI and in the experiment with T47D was > 100 µM (inactive) in each case. Also, the GI50 in the experiment on HCT-15 is over 100 µM; in the experiment with SF-539, > 100 µM (inactive); in the experiment with HT-29, > 100 µM (inactive); in the experiment with 786-0 it was > 100 µM (inactive); with SK-MEL-28, > 100 µM (inactive); in the experiment on M14, > 100 µM (inactive). Besides, the GI50 in the experiment on SNB-75, with PC-3, with IGROV-1, with HOP-62, with SK-MEL-2 and in the experiment with OVCAR-3 was > 100 µM (inactive) throughout. In addition, in the experiment on OVCAR-8, the GI50 was > 100 µM (inactive).

Consider `CCC(c1ccc2cc(O)ccc2c1)C(C)(C)C(=O)O` (configuration not stated), for which the GI50 with HCC 2998, in the experiment with OVCAR-4, in the experiment with UO-31, with SR, with LOX IMVI and in the experiment on T47D was > 100 µM (inactive) in each case. Moreover, the GI50 in the experiment with HCT-15 was over 100 µM; in the experiment with SF-539, > 100 µM (inactive); in the experiment on HT-29 it was > 100 µM (inactive); in the experiment with 786-0, > 100 µM (inactive); with SK-MEL-28 it was > 100 µM (inactive); in the experiment with M14 it was > 100 µM (inactive). Also, the GI50 in the experiment on SNB-75, in the experiment on PC-3, in the experiment on IGROV-1, in the experiment with HOP-62, in the experiment with SK-MEL-2 and with OVCAR-3 was > 100 µM (inactive) each time. In the experiment on OVCAR-8, the GI50 was > 100 µM (inactive).

On to `Cc1ccc2cccc(-c3cccc4ccccc34)c2n1`, for which the GI50 was 12.1 µM (inactive) in the experiment with HCC 2998; 24.9 µM (inactive) in the experiment with OVCAR-4; 14.3 µM (inactive) in the experiment with UO-31; 12.6 µM (inactive) in the experiment with SR; 14.9 µM (inactive) with LOX IMVI; 15.8 µM (inactive) in the experiment with T47D. In addition, the GI50 was 21.7 µM in the experiment with HCT-15; 24 µM (inactive) in the experiment on SF-539; 20.7 µM (inactive) in the experiment on HT-29; 27.4 µM (inactive) in the experiment with 786-0; 26.6 µM (inactive) in the experiment on SK-MEL-28; 17.2 µM (inactive) in the experiment with M14. For the same compound, the GI50 was 8.87 µM (inactive) in the experiment with SNB-75; 29.2 µM (inactive) in the experiment with PC-3; 26.5 µM (inactive) with IGROV-1; 25.2 µM (inactive) in the experiment with HOP-62; 15 µM (inactive) in the experiment with SK-MEL-2; 25.2 µM (inactive) in the experiment on OVCAR-3. The GI50 with OVCAR-8 is 22.1 µM (inactive).
